Measured values: PMC10761696, “Avapritinib-based SAR studies unveil a binding pocket in KIT and PDGFRA” (Nature Communications, 2024)
Where “and” joins values, the source holds several entries; their conditions need not be identical. Equal values may be shown once. Read-outs that look alike come from different tables or passages of the source.

Key:
[1] = ref WO2022/081626; cited from earlier work
[2] = tested on: T1-a-5258; assay: CellTiter-Glo (CTG) GR50, T1-a-5258; details: Homo sapiens
[3] = tested on: GIST-T1; assay: CellTiter-Glo (CTG) GR50, GIST-T1; details: for GI50: Homo sapiens
[4] = tested on: GIST-48B; assay: CellTiter-Glo (CTG) GR50, GIST-48B control cell line (off-target toxicity); details: for ratio GIST-48B/ T1-a-D842V / GIST-48B/D842V: ratio of GR50 values; for GIST-48B/D842V: source data sheet
[5] = molecular target: T1, PDGFRA-D842V (Homo sapiens, UniProt P16234, D842V); assay: Activity-based HTRF KinEASE assay, PDGFRA-D842V; format: biochemical
T1 construct: purchased Invitrogen PV4203 (lot #2343231B)

[6] = tested on: SK-LMS-1; assay: CellTiter-Glo (CTG) GR50, SK-LMS-1 control cell line; details: for CTG GR50 SK-LMS-1, single determinations: raw data of Supp. Tab. 2, independent experiments, unit from Supp. Tab. 2; for CTG GR50 SK-LMS-1: mean ± s.d., n = 3, control cell line
[7] = tested on: T1-V654A; assay: CellTiter-Glo (CTG) GR50, T1-V654A; details: Homo sapiens
[8] = tested on: T1-a-D842V; assay: CellTiter-Glo (CTG) GR50, T1-a-D842V
[9] = tested on: MDA-MB-175VII; assay: CellTiter-Glo (CTG) EC50, MDA-MB-175VII breast cancer control cell line; format: cell-based, human
Protocol: (§1) Cell line authenticity was confirmed by STR analysis at Eurofins Genomics. All cell lines were tested regularly for mycoplasma contamination using the Mycoplasmacheck Service at Eurofins Genomics. […] Following incubation for 24 h in a humidified atmosphere at 37 °C and 5% CO2, cells were treated with inhibitors in serial dilutions ranging from 30 µM down to 0.1 nM using an Echo650 acoustic liquid handler (Beckman Coulter). Cell viability was analyzed on day 5 using the CellTiter-Glo® assay (Promega) using 500 ms integration time. The obtained data were normalized to the plate positive control (30 µM staurosporine) and negative control (DMSO) and subsequently analyzed and fitted with the Quattro Software Suite (Quattro Research) using a four-parameter logistic model. As quality control, the Z’-factor was calculated from 16 positive and negative control values. Only assay results showing a Z’-factor ≥0.5 were used for further analysis. All experimental points were measured in duplicates for each plate and were independently replicated in at least three plates.

[10] = tested on: ZR-75-1; assay: CellTiter-Glo (CTG) EC50, ZR-75-1 breast cancer control cell line; format: cell-based, human; details: Homo sapiens
Protocol: as §1

[11] = molecular target: KIT-D816H (Homo sapiens, UniProt P10721, D816H); assay: Activity-based HTRF KinEASE assay, KIT-D816H; format: biochemical
[12] = tested on: T1-T670I; assay: CellTiter-Glo (CTG) GR50, T1-T670I; details: Homo sapiens
[13] = MDCKII-MDR1 permeability assay; details: dog; for Papp B→A at 2 h, 10 µM: MDCK-MDR1
[14] = tested on: MDR1; assay: MDCKII-MDR1 permeability assay; details: dog; for efflux ratio at 2 h, 10 µM: MDCK-MDR1; for recovery at 2 h, 10 µM: MDCKII-MDR1, assay conc. 10
[15] = tested on: D842V-mutant gastrointestinal stromal tumors (GIST); details: patients with D842V-mutant GIST; ref NAVIGATOR trial; cited from earlier work
[16] = tested on: T1-D816E; assay: CellTiter-Glo (CTG) GR50, T1-D816E; details: mean ± s.d., n ≥ 3
[17] = tested on: T1-a-G680R; assay: CellTiter-Glo (CTG) GR50, T1-a-G680R; details: raw data of Table 1, independent experiments; unit from Table 1
[18] = tested on: MDCKII-MDR1 cells; assay: MDCKII-MDR1 permeability assay; details: for permeability class of reference compound (Comment): reference compounds of the MDCKII-MDR1 assay
[19] = read-out: CTG GR50 T1-a-5258, single determinations, raw data of Supp. Tab. 1, independent experiments, unit from Supp. Tab. 1
[20] = read-out: PDGFRA CTG GR50 T1-a-5258, mean ± s.d., n ≥ 3, triple mutant D842V, G652E, V658A
[21] = GISTT1, read-out: CTG GR50 GIST-T1, single determinations, raw data of Table 1, independent experiments, unit from Table 1
[22] = GISTT1, read-out: KIT CTG GR50 GIST-T1, mean ± s.d., n ≥ 3, GR50 half-maximal growth inhibition rate
[23] = mean ± s.d., n ≥ 3, ATP at KM (14 µM), read-out: HTRF IC50 PDGFRA-D842V
[24] = raw data of Table 1, independent experiments 1-3, unit from Table 1, read-out: HTRF IC50 PDGFRA-D842V, single determinations
[25] = read-out: CTG GR50 T1-V654A, single determinations, raw data of Supp. Tab. 1, independent experiments, unit from Supp. Tab. 1
[26] = read-out: KIT CTG GR50 T1-V654A, mean ± s.d., n ≥ 3 (* n = 2 for ava)
[27] = Homo sapiens, MDA-MB-175-VII, read-out: CTG EC50 MDA-MB-175VII, mean ± s.d., n = 3, control cell line
[28] = Homo sapiens, MDA-MB-175-VII, read-out: CTG EC50 MDA-MB-175VII, single determinations, raw data of Supp. Tab. 2, independent experiments, unit from Supp. Tab. 2
[29] = ZR-75-1, mean ± s.d., n = 3, control cell line, read-out: CTG EC50 ZR-75-1
[30] = ZR-75-1, raw data of Supp. Tab. 2, independent experiments, unit from Supp. Tab. 2, read-out: CTG EC50 ZR-75-1, single determinations
[31] = mean ± s.d., n ≥ 3, ATP at KM (12 µM), read-out: HTRF IC50 KIT-D816H
[32] = raw data of Table 1, independent experiments, unit from Table 1, read-out: HTRF IC50 KIT-D816H, single determinations
[33] = read-out: CTG GR50 T1-T670I, single determinations, raw data of Supp. Tab. 1, independent experiments, unit from Supp. Tab. 1
[34] = read-out: KIT CTG GR50 T1-T670I, mean ± s.d., n ≥ 3
[35] = MDCK-MDR1, MDCKII-MDR1 (Papp A→B), at 10 µM, 2 h, 37 °C, unit inferred
[36] = MDCK-MDR1, Papp A->B, MDCKII-MDR1, assay conc. 10, apical to basolateral

T1 sequence (P16234 24-1089 D842V): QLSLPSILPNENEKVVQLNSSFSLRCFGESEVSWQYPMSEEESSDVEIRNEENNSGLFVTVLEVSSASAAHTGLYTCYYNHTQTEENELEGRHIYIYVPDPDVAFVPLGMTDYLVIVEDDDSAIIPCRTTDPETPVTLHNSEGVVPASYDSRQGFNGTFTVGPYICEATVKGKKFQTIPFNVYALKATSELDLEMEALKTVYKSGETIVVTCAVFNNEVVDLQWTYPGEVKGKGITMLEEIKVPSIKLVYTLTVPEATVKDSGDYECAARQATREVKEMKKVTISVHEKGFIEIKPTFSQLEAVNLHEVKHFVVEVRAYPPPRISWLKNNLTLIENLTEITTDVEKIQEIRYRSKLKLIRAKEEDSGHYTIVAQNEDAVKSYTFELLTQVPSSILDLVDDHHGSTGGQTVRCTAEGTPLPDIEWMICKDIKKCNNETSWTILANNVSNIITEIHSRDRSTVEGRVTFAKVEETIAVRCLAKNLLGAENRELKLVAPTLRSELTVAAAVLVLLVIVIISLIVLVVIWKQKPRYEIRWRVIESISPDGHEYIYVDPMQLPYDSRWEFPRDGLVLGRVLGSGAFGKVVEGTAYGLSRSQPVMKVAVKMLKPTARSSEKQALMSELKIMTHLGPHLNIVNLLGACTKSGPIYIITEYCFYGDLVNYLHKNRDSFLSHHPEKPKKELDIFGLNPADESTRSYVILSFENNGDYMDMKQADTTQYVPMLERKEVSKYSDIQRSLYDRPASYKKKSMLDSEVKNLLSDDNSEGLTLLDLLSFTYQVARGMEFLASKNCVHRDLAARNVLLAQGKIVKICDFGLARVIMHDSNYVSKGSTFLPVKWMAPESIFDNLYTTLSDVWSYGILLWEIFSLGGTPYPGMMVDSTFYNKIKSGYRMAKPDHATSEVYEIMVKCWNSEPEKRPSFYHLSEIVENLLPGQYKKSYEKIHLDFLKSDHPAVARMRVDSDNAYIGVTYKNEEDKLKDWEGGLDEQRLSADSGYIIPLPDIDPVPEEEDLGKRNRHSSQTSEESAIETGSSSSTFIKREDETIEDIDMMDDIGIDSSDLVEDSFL
Chain of KIT-D816H (P10721 26-976 D816H): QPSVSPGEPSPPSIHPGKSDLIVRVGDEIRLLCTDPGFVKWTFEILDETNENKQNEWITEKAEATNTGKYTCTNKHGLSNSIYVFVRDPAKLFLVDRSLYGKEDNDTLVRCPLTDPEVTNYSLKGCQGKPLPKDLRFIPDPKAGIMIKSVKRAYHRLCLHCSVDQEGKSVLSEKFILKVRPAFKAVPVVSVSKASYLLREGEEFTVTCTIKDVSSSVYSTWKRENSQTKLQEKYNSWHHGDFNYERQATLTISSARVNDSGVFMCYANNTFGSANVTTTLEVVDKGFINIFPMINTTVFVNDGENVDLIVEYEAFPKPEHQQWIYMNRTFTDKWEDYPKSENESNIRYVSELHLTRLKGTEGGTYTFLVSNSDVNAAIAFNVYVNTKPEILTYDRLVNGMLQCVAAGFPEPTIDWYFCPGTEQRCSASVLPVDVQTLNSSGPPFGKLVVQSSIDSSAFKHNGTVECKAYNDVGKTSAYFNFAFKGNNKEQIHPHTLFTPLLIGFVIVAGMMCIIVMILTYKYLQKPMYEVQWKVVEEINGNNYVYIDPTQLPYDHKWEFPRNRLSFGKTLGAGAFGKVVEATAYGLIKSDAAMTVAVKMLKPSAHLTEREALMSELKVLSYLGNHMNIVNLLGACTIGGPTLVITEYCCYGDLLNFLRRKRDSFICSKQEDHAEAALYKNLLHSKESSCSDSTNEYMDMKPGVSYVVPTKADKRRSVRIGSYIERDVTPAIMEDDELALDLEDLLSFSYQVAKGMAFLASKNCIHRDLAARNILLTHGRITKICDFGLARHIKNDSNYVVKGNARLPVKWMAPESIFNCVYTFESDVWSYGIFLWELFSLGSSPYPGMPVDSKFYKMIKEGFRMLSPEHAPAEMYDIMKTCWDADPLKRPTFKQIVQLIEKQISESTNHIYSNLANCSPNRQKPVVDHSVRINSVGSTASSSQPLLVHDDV

Row | Compound | GI50 [2, 19] [nM] | GI50 [2, 20] [nM] | GI50 [3, 22] [nM] | ratio GIST-48B/ T1-a-D842V [4] | GIST-48B/D842V [4] | IC50 [5, 23] | IC50 [5, 24] | CTG GR50 SK-LMS-1, single determinations [6] | GI50 [7, 26] [nM] | EC50 [9, 27] [nM] | EC50 [9, 28] [nM] | EC50 [10, 29] [nM] | EC50 [10, 30] [nM] | IC50 [11, 31] [nM] | IC50 [11, 32] | GI50 [12, 34] [nM] | CTG GR50 SK-LMS-1 [6] | Papp B→A at 2 h, 10 µM [13] [×10⁻⁶ cm/s] | Papp A→B at 2 h, 10 µM [13, 35] [×10⁻⁶ cm/s] | further results
1 | C[C@](N)(c1ccc(F)cc1)c1cnc(N2CCN(c3ncnn4cc(-c5cnn(CCO)c5)cc34)CC2)nc1 [BLU-263] | – | – | – | – | – | – | – | – | – | – | – | – | – | – | – | – | – | – | – | BBB permeability compared to avapritinib [1]: less BBB permeable compared to avapritinib
2 | Cn1cc(-c2cc3c(N4CCC5(CC4)CN(c4ncc(Cc6ccccc6)cn4)C5)ncnn3c2)cn1 [Compound 7] | 9970 | 9520 ± 810 | 709 ± 196 | 1 | 1.22 | 749 ± 142 nM | 563 nM and 909 nM and 773 nM | ≥10 µM | 6730 ± 439 | ≥ 10000 | ≥ 10000 | ≥ 10000 | ≥ 10000 | 204 ± 84 | 283 nM and 116 nM and 213 nM | ≥ 10000 | – | – | – | GI50 [3, 21]: 824 nM; fold decrease in potency, GIST-T1 ([3]; comparator not clearly stated): ~ 17 fold; GI50 [7, 25]: 6130 nM; fold decrease in potency, T1-a-D842V ([8]; comparator not clearly stated): > 500 fold; GI50 [12, 33]: ≥ 10000 nM
3 | COC(=O)N[C@@](C)(c1ccc(F)cc1)c1cnc(N2CCN(c3ncnn4cc(-c5cnn(C)c5)cc34)CC2)nc1 [Compound 12] | 2400 | 2220 ± 350 | 60 ± 12 | 256 | 256 | 0.2 ± 0.1 nM | 0.3 nM and 0.2 nM and 0.1 nM | 6.084 µM and 5.919 µM and 10 µM | 474 ± 155 | ≥ 10000 | ≥ 10000 | ≥ 10000 | ≥ 10000 | 0.6 ± 0.4 | 1.1 nM and 0.3 nM and 0.53 nM | 695 ± 135 | 7.334 ± 2.31 µM and 7.334 µM | 2.76 | 12.4 | GI50 [3, 21]: 71 nM; Papp A→B at 2 h, 10 µM [13, 36]: 12.4 ×10⁻⁶ cm/s; efflux ratio at 2 h, 10 µM [14]: 0.22; recovery at 2 h, 10 µM ([14]; MDCK-MDR1, Recovery A->B): 25.4%; recovery at 2 h, 10 µM ([14]; MDCK-MDR1, Recovery B->A): 49.7%; GI50 [12, 33]: 620 nM
4 | Cn1cc(-c2cc3c(N4CCN(c5ncc([C@@](C)(NC(=O)c6ccccc6)c6ccc(F)cc6)cn5)CC4)ncnn3c2)cn1 [Compound 13] | – | – | 287 ± 176 | 196 | 196 | ~0.2 nM and 0.2 nM | 0.2 nM and 0.15 nM and 0.28 nM | 8.494 µM and 10 µM | – | ≥ 10000 | ≥ 10000 | ≥ 10000 | ≥ 10000 | 2 ± 0.1 | 2.1 nM (2×) and 1.8 nM | – | 9.498 ± 0.869 µM and 9.498 µM | 0.47 | 3.5 | activity with respect to the control cell lines ([4]; control cell lines (Table 1, Supplementary Table 2)): completely inactive; Papp A→B at 2 h, 10 µM [13, 36]: 3.46 ×10⁻⁶ cm/s; efflux ratio at 2 h, 10 µM [14]: 0.13; recovery at 2 h, 10 µM ([14]; MDCK-MDR1, Recovery A->B): 81.4%; recovery at 2 h, 10 µM ([14]; MDCK-MDR1, Recovery B->A): 63.6%; fold loss of potency compared to avapritinib, T1-a-D842V ([8]; cellular assay): 3 fold
5 | Cn1cc(-c2cc3c(N4CCN(c5ncc([C@@](C)(N)c6ccc(F)cc6)cn5)CC4)ncnn3c2)cn1 [ava (1), avapritinib] | 570 | 540 ± 30 | 36 ± 10 | – | – | – | – | 5.269 µM and 10 µM | 357 ± 142 | – | 5700 | – | – | – | – | 457 ± 240 | 8.423 ± 2.731 µM and 8.423 µM | 3.02 | 12.5 | GI50 [7, 25]: 256 nM; overall response rates [15]: more than 90%; EC50 ([9]; read-out: CTG EC50 MDA-MB-175VII, single determinations, raw data of Supp. Tab. 2, independent experiments, unit from Supp. Tab. 2): 5760 nM and 5880 nM; EC50 ([9]; read-out: CTG EC50 MDA-MB-175VII, mean ± s.d., n = 3, control cell line): 5780 nM; KIT CTG GR50 T1-D816E [16]: 67 ± 18 nM and 67 nM; CTG GR50 T1-a-G680R, single determinations [17]: 1455 nM and 1460 nM
6 | C[C@H]1O[C@@H](O[C@H]2[C@@H](O)C[C@H](O[C@H]3[C@@H](O)C[C@H](O[C@H]4CC[C@@]5(C)[C@H](CC[C@@H]6[C@@H]5C[C@@H](O)[C@]5(C)[C@@H](C7=CC(=O)OC7)CC[C@]65O)C4)O[C@@H]3C)O[C@@H]2C)C[C@H](O)[C@@H]1O [digoxin, reference compound] | – | – | – | – | – | – | – | – | – | – | – | – | – | – | – | – | – | 15.4 ± 16 | – | Papp A→B at 2 h, 10 µM ([13]; MDCK-MDR1, MDCKII-MDR1 (PappA→B), reference compounds, mean over routine assay runs): 1.9 ± 4.5 ×10⁻⁶ cm/s; permeability class of reference compound (Comment) [18]: efflux
7 | CC(C)NCC(O)COc1cccc2ccccc12 (stereo not drawn) [propranolol, reference compound] | – | – | – | – | – | – | – | – | – | – | – | – | – | – | – | – | – | – | – | permeability class of reference compound (Comment) [18]: highly permeable; permeability class of reference compound (Comment) ([18]; listed as Propanolol): permeable; MDCKII-MDR1 (PappA→B) ([18]; reference compounds, mean over routine assay runs): 32 ± 10.3 10-6 cm/s
